Values quoted from earlier work in patent US7521430B2, “N-glucoside compounds having an inhibitory activity against sodium-dependent glucose transporter” (Mitsubishi Tanabe Pharma Corporation, priority 2003, dated 2009).

Tested on: diabetic animal models
Conditions: continuous subcutaneous administration

O=C(CCc1ccc(O)cc1)c1c(O)cc(O)cc1O[C@@H]1O[C@H](CO)[C@@H](O)[C@H](O)[C@H]1O [phlorizin]
hyperglycemia / blood glucose level: hyperglycemia is normalized
